The results in this text go back to ChEMBL document CHEMBL1201862, “PubChem BioAssay data set” (2004).

Molecules are shown by their SMILES.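 Assay format: 96-well plates, 48-hour exposure. At the GI50, growth is halved.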 The source made the active and inactive calls. No stated cut-off is given here; in the data, active = GI50 up to about 1.1 µM and inactive = higher.

Common to all, as to experiment: DTP human tumour cell line panel, 48 h
Experiment [1] relates to T47D.
Experiment [2] deals with SW-620.
For experiment [3], the system named is UO-31.
Experiment [4] has as its system TK-10.
Experiment [5] has as its system NCI-H460.
Experiment [6] has as its system Hs-578T.
For experiment [7], the system named is K562.
Experiment [8] has as its system NCI-H23.
Experiment [9] relates to OVCAR-8.
In experiment [10] the test system is A549.
Experiment [11] relates to SNB-75.
Experiment [12] concerns LOX IMVI.
For experiment [13], the system named is A498.
The subject of experiment [14] is MDA-MB-231.
Experiment [15] concerns SR.
The test system of experiment [16] is OVCAR-5.
Experiment [17] concerns KM12.
In experiment [18] the test system is SK-MEL-5.
For experiment [19], the system named is HCT-15.

For orientation: GI50 means the concentration at which growth is held to half of that of the control. As to `c1ccc(C(c2cccc3c2ccc2ccccc23)C(c2ccccc2)c2cccc3c2ccc2ccccc23)cc1` (centres undefined), the GI50 in [1], in experiment [2], in experiment [3], in [4], in experiment [5] and in experiment [6] was > 100 µM (inactive) throughout. Moreover, the GI50 in experiment [7], in experiment [8], in experiment [9], in experiment [10], in [11] and in [12] was > 100 µM (inactive) throughout. For the same molecule, the GI50 in experiment [13], in [14], in experiment [15], in experiment [16], in [17] and in experiment [18] was > 100 µM (inactive) each time. The GI50 in [19] was > 100 µM.
For the molecule `CCCCCCCCCCCC(=O)N(CCCCCCCCC)CC(O)C(O)C(OC1OC(CO)C(O)C(O)C1O)C(O)CO` (centres undefined), the GI50 in experiment [1] is 20.5 µM (inactive); in [2], 18.8 µM (inactive); in experiment [3] it was 17 µM (inactive); in experiment [4], 15.2 µM (inactive); in experiment [5], 18.1 µM (inactive); in experiment [6], 35.3 µM (inactive). The GI50 was 26.9 µM (inactive) in [7]; 17.6 µM (inactive) in experiment [8]; 20.6 µM (inactive) in experiment [9]; 21 µM (inactive) in experiment [10]; 18.5 µM (inactive) in [11]; 20.9 µM (inactive) in [12]. For the same molecule, the GI50 was 23.1 µM (inactive) in experiment [13]; 26 µM (inactive) in experiment [14]; 24.7 µM (inactive) in experiment [15]; 22.7 µM (inactive) in experiment [16]; 16.7 µM (inactive) in experiment [17]; 17.4 µM (inactive) in experiment [18]. For the same molecule, in experiment [19], it took 16.9 µM to inhibit growth by half (GI50).
For `Cn1c(-c2ccccc2)cc(-c2cccs2)c1-c1ccsc1`, the GI50 in [1], in experiment [2], in experiment [3], in experiment [4], in experiment [5] and in [6] was > 100 µM (inactive) throughout. Moreover, the GI50 in experiment [7], in experiment [8], in experiment [9], in [10], in experiment [11] and in experiment [12] was > 100 µM (inactive) in each case. For the same molecule, the GI50 in experiment [13] was > 100 µM (inactive); in [14], > 100 µM (inactive); in experiment [15], > 100 µM (inactive); in experiment [16], > 100 µM (inactive); in experiment [17], 80.5 µM (inactive); in experiment [18], > 100 µM (inactive). Besides, in experiment [19], the GI50 is > 100 µM.
For `O=[N+]([O-])c1ccc(S(=O)(=O)Cc2ccccc2)c2nonc12`, the GI50 in [1] was 18.9 µM (inactive); in experiment [2], 22.1 µM (inactive); in experiment [3], 29.2 µM (inactive); in experiment [4], 18.1 µM (inactive); in experiment [5], 21.1 µM (inactive); in experiment [6], 24.3 µM (inactive). The GI50 in [7] is 26.6 µM (inactive); in experiment [8], 19.1 µM (inactive); in experiment [9], 22.1 µM (inactive); in experiment [10], 29.4 µM (inactive); in experiment [11], 27.6 µM (inactive); in experiment [12], 19.2 µM (inactive). The GI50 was > 100 µM (inactive) in [13]; 22.5 µM (inactive) in [14]; 24.2 µM (inactive) in experiment [15]; 58.2 µM (inactive) in experiment [16]; 19.5 µM (inactive) in [17]; 18.5 µM (inactive) in [18]. Also, halving of growth in [19] (GI50) required 22.3 µM.
Consider `COc1ccc2oc(S(=O)(=O)N3CC(CCl)c4ccc(N)cc43)cc2c1` (centres undefined), for which the GI50 in experiment [1] was > 100 µM (inactive); in experiment [2], 0.0395 µM (active); in experiment [3], 1.93 µM (inactive); in experiment [4], 46.8 µM (inactive); in experiment [5], 0.0255 µM (active); in experiment [6] it was 0.0161 µM (active). The GI50 in experiment [7] is 0.0225 µM (active); in experiment [8], 0.401 µM (active); in experiment [9], 0.152 µM (active); in [10], 0.0662 µM (active); in experiment [11], < 0.0215 µM (active); in experiment [12], 0.0471 µM (active). Besides, the GI50 was 1.48 µM (inactive) in experiment [13]; 2.01 µM (inactive) in experiment [14]; < 0.01 µM (active) in experiment [15]; > 19.3 µM (inactive) in [16]; 0.0228 µM (active) in [17]; 0.019 µM (active) in experiment [18]. In [19], the GI50 was 0.023 µM.
For `CCOC(C)O[C@H]1C(=O)OCC1(C)C` (some centres undefined), the GI50 in [1], in experiment [2], in experiment [3], in [4], in experiment [5] and in experiment [6] was > 100 µM (inactive) throughout. Further, the GI50 in [7] was 80.7 µM (inactive); in experiment [8] it was > 100 µM (inactive); in experiment [9] it was > 100 µM (inactive); in experiment [10] it was > 100 µM (inactive); in experiment [11], > 100 µM (inactive); in experiment [12], > 100 µM (inactive). For the same molecule, the GI50 in [13], in experiment [14], in experiment [15], in experiment [16], in [17] and in experiment [18] was > 100 µM (inactive) in each case. Further, in experiment [19], the GI50 is > 100 µM.
With `CN(C)/C=N/S(=O)(=O)c1nn2c(C=O)c(-c3cc4ccccc4oc3=O)nc2s1`, the GI50 in experiment [1] was 4.09 µM (inactive); in experiment [2], 2.18 µM (inactive); in [3], 1.51 µM (inactive); in [4], 3.52 µM (inactive); in [5], 19.3 µM (inactive); in experiment [6], 15.6 µM (inactive). For the same molecule, the GI50 in [7] is 1.58 µM (inactive); in experiment [8], 9.68 µM (inactive); in experiment [9], 3.72 µM (inactive); in experiment [10] it was 13 µM (inactive); in [11], 27.4 µM (inactive); in [12], 2.65 µM (inactive). Also, the GI50 in experiment [13] was 22.3 µM (inactive); in experiment [14], 10.7 µM (inactive); in [15], 5.73 µM (inactive); in [16], 14.6 µM (inactive); in experiment [17], 12.1 µM (inactive); in [18], 2.77 µM (inactive). The molecule also gave a GI50 in experiment [19] of 3.4 µM.
On to `Cc1c2c(c(C)c3c4c(oc13)CCCC4)C=NCC2`, for which the GI50 in experiment [1] is 35.6 µM (inactive); in experiment [2], 21.3 µM (inactive); in [3], 13.1 µM (inactive); in experiment [4], 12.1 µM (inactive); in experiment [5], 15.8 µM (inactive); in experiment [6], 17 µM (inactive). For the same molecule, the GI50 in [7] is 11.1 µM (inactive); in [8], 16.2 µM (inactive); in experiment [9], 10.6 µM (inactive); in experiment [10], 17 µM (inactive); in experiment [11], 15.8 µM (inactive); in [12] it was 20.5 µM (inactive). Also, the GI50 in experiment [13] is 17 µM (inactive); in experiment [14], 16.4 µM (inactive); in experiment [15], 6.58 µM (inactive); in experiment [16] it was 16.8 µM (inactive); in [17], 16.1 µM (inactive); in [18], 14.9 µM (inactive). The same molecule gave a GI50 in [19] of 13.9 µM.
Take `CCOC(=O)NC(Nc1ccc(C(=O)O)cc1)(C(F)(F)F)C(F)(F)F`: the GI50 in experiment [1], in [2], in experiment [3], in [4], in experiment [5] and in [6] was > 100 µM (inactive) each time. Besides, the GI50 in experiment [7], in [8], in [9], in [10], in [11] and in experiment [12] was > 100 µM (inactive) each time. Besides, the GI50 in experiment [13], in experiment [14], in experiment [15], in [16], in [17] and in [18] was > 100 µM (inactive) throughout. Besides, the GI50 in experiment [19] is > 100 µM.
`CN(CC(=O)O)c1ccc(/C=C/c2ccnc3ccccc23)cc1`: the GI50 in experiment [1] is 20.2 µM (inactive); in [2], 29.4 µM (inactive); in experiment [3], 15.7 µM (inactive); in [4], 19.7 µM (inactive); in experiment [5], 21.4 µM (inactive); in experiment [6] it was 25.4 µM (inactive). For the same molecule, the GI50 in experiment [7] is 23.7 µM (inactive); in [8] it was 33.3 µM (inactive); in experiment [9], 27.7 µM (inactive); in [10], 17.5 µM (inactive); in experiment [11] it was 24.8 µM (inactive); in experiment [12] it was 22.3 µM (inactive). For the same molecule, the GI50 in experiment [13] was 17.1 µM (inactive); in [14], 27 µM (inactive); in experiment [15], 6.93 µM (inactive); in experiment [16], 29.2 µM (inactive); in experiment [17], 13.2 µM (inactive); in experiment [18], 16 µM (inactive). Further, the GI50 in [19] was 31.9 µM.
As to `COC1OC(COC(=O)c2cc(O)c(O)c(O)c2)C(OC(=O)c2cc(O)c(O)c(O)c2)C(OC(=O)c2cc(O)c(O)c(O)c2)C1OC(=O)c1cc(O)c(O)c(O)c1` (centres undefined), the GI50 in experiment [1] was 52.4 µM (inactive); in experiment [2], 31.6 µM (inactive); in experiment [3] it was 17.1 µM (inactive); in [4], > 100 µM (inactive); in [5] it was 9.2 µM (inactive); in experiment [6], > 100 µM (inactive). For the same molecule, the GI50 was 21.5 µM (inactive) in experiment [7]; 78.5 µM (inactive) in experiment [8]; 27.2 µM (inactive) in [9]; 33 µM (inactive) in experiment [10]; 26.3 µM (inactive) in experiment [11]; 13.5 µM (inactive) in experiment [12]. For the same molecule, the GI50 is 1.77 µM (inactive) in [13]; 26.2 µM (inactive) in experiment [14]; 11.1 µM (inactive) in experiment [15]; 57.5 µM (inactive) in experiment [16]; 22.4 µM (inactive) in [17]; 13.3 µM (inactive) in experiment [18]. In experiment [19], this molecule showed a GI50 of 47.2 µM.
